Experimental data: US6943183B2 (Pfizer Inc, priority 2000, dated 2005)

Target: T1, SF9 affinity purified rat FPT (Rattus norvegicus, UniProt Q02293+Q04631)
T1 construct: made in house; host or cells: Sf9 insect cells
Assay: PFT (FPT) inhibitory activity assay, radiolabeled farnesyl pyrophosphate and biotinyl peptide, streptavidin beads
Assay type: biochemical
Conditions: HEPES buffer pH 7.4, 30° C., 30 minutes; read-out: FTase IC50
Procedure, shortened: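 Rat FPT expressed in SF9 cells was incubated 30 minutes at 30° C. with compound (in 10% DMSO), radiolabeled farnesyl pyrophosphate and biotinylated peptide. Buffer: HEPES pH 7.4, ZnCl2 20 μM, MgCl2 and DTT 5 mM each, 0.1% PEG 8000, 5 mM potassium phosphate (also run without phosphate). Product captured on streptavidin beads in magnesium acetate/H3PO4 stop buffer.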

IC50 [nM] | Structure (SMILES)
2.5 | CC(C)[C@@H](Cn1ccnc1)Oc1ccc2c(c1NC(=O)c1nccc3ccccc13)CCCC2=O [Compound 63h, Isoquinoline-1-carboxylic acid [2-((S)-1-imidazol-1-ylmethyl-2-methyl-propoxy)-5-oxo-5,6,7,8-tetrahydro-naphthalen-1-yl]-amide]
1.5 | O=C1CCCc2c1ccc(O[C@H](Cn1ccnc1)c1ccc(F)cc1F)c2CS(=O)(=O)c1ccccn1 [Compound 63j, (S)-6-[-1-(2,4-Difluoro-phenyl)-2-imidazol-1-yl-1-ethoxy]-5-(pyridin-2-ylsulfonylmethyl)-3,4-dihydro-2H-naphthalen-1-one]
5.5 | CC(C)C(Cn1ccnc1)Oc1ccc2c(c1CS(=O)(=O)c1ccccc1)CCCC2=O (stereo not drawn) [Compound 63l, 6-[1-(1H-Imidazol-1-ylmethyl)-2-methylpropoxy]-5-[(phenylsulfonyl)methyl]-3,4-dihydro-1(2H)-naphthalenone]
1 | CCCCC(Cn1ccnc1)Oc1ccc2c(c1CS(=O)(=O)c1ccccc1)CCCC2=O (stereo not drawn) [Compound 63m, 6-{[1-(1H-Imidazol-ylmethyl)pentyl]oxy}-5-[(phenylsulfonyl)methyl]-3,4-dihydro-1(2H)-naphthalenone]
7 | CCC(Cn1ccnc1)Oc1ccc2c(c1CS(=O)(=O)c1ccccc1)CCCC2=O (stereo not drawn) [Compound 63n, 6-[1-(1H-Imidazol-1-ylmethyl)propoxy]-5-[(phenylsulfonyl)methyl]-3,4-dihydro-1(2H)-naphthalenone]
0.55 | O=C1CCCc2c1ccc(OC(Cn1ccnc1)c1cccs1)c2CS(=O)(=O)c1ccccn1 (stereo not drawn) [Compound 63p, 6-(2-Imidazol-yl-1-thiophen-2-yl-ethoxy)-5-(pyridine-2-sulfonylmethyl)-3,4-dihydro-2H-naphthalen-1-one]
0.5 | O=C1CCCc2c1ccc(OC(Cn1ccnc1)c1nccs1)c2CS(=O)(=O)c1ccccn1 (stereo not drawn) [Compound 63q, 6-(2-Imidazol-1-yl-1-thiazol-2-yl-ethoxy)-5-(pyridine-2-sulfonylmethyl)-3,4-dihydro-2H-naphthalen-1-one]
11 | COCc1c(O[C@H](Cn2ccnc2)c2ccccc2)ccc2c1CCCC2=O [Compound 64]
0.4 | COc1ccc(OCc2c(O[C@H](Cn3ccnc3)c3ccccc3)ccc3c2CCCC3=O)cc1 [Compound 65]
12 | O=C1CCCc2c1ccc(O[C@H](Cn1ccnc1)c1ccccc1)c2COc1ccccc1 [Compound 66, 6-((1S)-2-Imidazolyl-1-phenylethoxy)-5-(phenoxymethyl)-2,3,4-trihydronaphthalen-1-one]
1 | CC(C)(C)c1cccc(OCc2c(O[C@H](Cn3ccnc3)c3ccccc3)ccc3c2CCCC3=O)c1 [Compound 67]
0.7 | O=C1CCCc2c1ccc(O[C@H](Cn1ccnc1)c1ccccc1)c2COc1cccc(Cl)c1 [Compound 69]
7 | Cc1ccc(C(C)C)cc1OCc1c(O[C@H](Cn2ccnc2)c2ccccc2)ccc2c1CCCC2=O [Compound 70]
4 | COc1cc(OC)cc(OCc2c(O[C@H](Cn3ccnc3)c3ccccc3)ccc3c2CCCC3=O)c1 [Compound 71, 6-((1S)-2-imidazolyl-1-phenylethoxy)-5-[(3,5-dimethoxyphenoxy)methyl]-2,3,4-trihydronaphthalen-1-one]
5 | CC(C)c1ccc(OCc2c(O[C@H](Cn3ccnc3)c3ccccc3)ccc3c2CCCC3=O)cc1 [Compound 72]
2 | O=C1CCCc2c1ccc(O[C@H](Cn1ccnc1)c1ccccc1)c2COc1ccc2c(c1)CCCC2 [Compound 73, 6-((1S)-2-Imidazolyl-1-phenylethoxy)-5-(2-5,6,7,8-tetrahydro-naphthyloxymethyl)-2,3,4-trihydronaphthalen-1-one]
3 | CC(C)c1cccc(OCc2c(O[C@H](Cn3ccnc3)c3ccccc3)ccc3c2CCCC3=O)c1 [Compound 74]

IC50 [nM] | Structure (SMILES)
1 | O=C1CCCc2c1ccc(O[C@H](Cn1ccnc1)c1ccccc1)c2COc1cccc2[nH]ccc12 [Compound 76, 6-((1S)-2-Imidazolyl-1-phenylethoxy)-5-(indol-4-yloxymethyl)-2,3,4-trihydronaphthalen-1-one]
0.8 | CCOc1ccccc1OCc1c(O[C@H](Cn2ccnc2)c2ccccc2)ccc2c1CCCC2=O [Compound 78, 6-((1S)-2-Imidazolyl-4-phenylethoxy)-5-[(2-ethoxyphenoxy)methyl]-2,3,4-trihydronaphthalen-1-one]
0.8 | CCOc1ccc(OCc2c(O[C@H](Cn3ccnc3)c3ccccc3)ccc3c2CCCC3=O)cc1 [Compound 79]
4 | COC(=O)c1ccccc1OCc1c(O[C@H](Cn2ccnc2)c2ccccc2)ccc2c1CCCC2=O [Compound 81, Methyl 2-{[2-((1S)-2-imidazolyl-1-phenylethoxy)-5-oxo-6,7,8-trihydronaphthyl]methoxy}benzoate]
9 | Cc1ccc(OCc2c(O[C@H](Cn3ccnc3)c3ccccc3)ccc3c2CCCC3=O)cn1 [Compound 82]
18 | Cc1ccc(OCc2c(O[C@H](Cn3ccnc3)c3ccccc3)ccc3c2CCCC3=O)cn1 [Compound 83, 6-((1S)-2-imidazolyl-1-phenylethoxy)-5-[(6-methyl(3-pyridyloxy))methyl]-2,3,4-trihydronaphthalen-1-one]
10 | O=C1CCCc2c1ccc(O[C@H](Cn1ccnc1)c1ccccc1)c2COc1ccc2ccccc2c1 [Compound 85]
7 | COC(=O)c1cccc(OCc2c(O[C@H](Cn3ccnc3)c3ccccc3)ccc3c2CCCC3=O)c1 [Compound 88, Methyl 3-{[2-((1S)-2-imidazolyl-1-phenylethoxy)-5-oxo-6,7,8-trihydronaphthyl]methoxy}benzoate]
7 | Cc1cc(C)c(OCc2c(O[C@H](Cn3ccnc3)c3ccccc3)ccc3c2CCCC3=O)c(C)c1 [Compound 89, 6-((1S)-2-Imidazolyl-1-phenylethoxy)-5-[(2,4,6-trimethylphenoxy)methyl]-2,3,4-trihydronaphthalen-1-one]
4 | O=C1CCCc2c1ccc(O[C@H](Cn1ccnc1)c1ccccc1)c2COc1ccc2c(c1)OCO2 [Compound 92, 6-((1S)-2-imidazolyl-1-phenylethoxy)-5-(2H-benzo[d]1,3-dioxolan-5-yloxymethyl)-2,3,4-trihydronaphthalen-1-one]
3 | O=C1CCCc2c1ccc(O[C@H](Cn1ccnc1)c1ccccc1)c2COc1ccc2c(c1)OCO2 [Compound 93, 6-((1S)-2-Imidazolyl-1-phenylethoxy)-5-(2H-benzo[d]1,3-dioxolan-5-yloxymethyl)-2,3,4-trihydronaphthalen-1-one]
3 | O=C1CCCc2c1ccc(O[C@H](Cn1ccnc1)c1ccccc1)c2COc1cccc2cccnc12 [Compound 94]
5 | O=C1CCCc2c1ccc(O[C@H](Cn1ccnc1)c1ccccc1)c2COc1ccc(OC(F)(F)F)cc1 [Compound 96, 6-((1S)-2-Imidazolyl-1-phenylethoxy)-5-{[4-(trifluoromethoxy)phenoxy]methyl}-2,3,4-trihydronaphthalen-1-one]
6 | O=C1CCCc2c1ccc(O[C@H](Cn1ccnc1)c1ccccc1)c2COc1ccc(Oc2ccccc2)cc1 [Compound 97]
5 | Cc1cccc(OCc2c(O[C@H](Cn3ccnc3)c3ccccc3)ccc3c2CCCC3=O)c1 [Compound 99]
4 | Cc1ccc(OCc2c(O[C@H](Cn3ccnc3)c3ccccc3)ccc3c2CCCC3=O)cc1 [Compound 100]
